Legend:
[1] = biological target: T1, eIF2B mutant B4 R483W (HEK293T ATF4-Fluc cells) (Homo sapiens, UniProt P49770+Q9UI10, R483W); assay: ATF4-Luc assay, VWMD eIF2B mutant B4 R483W; type: cell-based; conditions: 1 μg/mL tunicamycin, 7 hours
T1 construct: endogenous in cells
Procedure: (§1) In order to test exemplary compounds of the invention in a cellular context, a stable VWMD cell line was first constructed. The ATF4 reporter was prepared by fusing the human full-length ATF4 5′-UTR (NCBI Accession No. BC022088.2) in front of the firefly luciferase (FLuc) coding sequence lacking the initiator methionine as described in Sidrauski et al (eLife 2013). The construct was used to produce recombinant retroviruses using standard methods and the resulting viral supernatant was used to transduce HEK293T cells, which were then subsequently selected with puromycin to generate a stable cell line.
(§2) HEK293T cells carrying the ATF4 luciferase reporter were plated on polylysine coated 384-well plates (Greiner Bio-one) at 30,000 cells per well. Cells were treated the next day with 1 μg/mL tunicamycin and 200 nM of a compound of Formula (I) for 7 hours. Luminescence was measured using One Glo (Promega) as specified by the manufacturer. Cells were maintained in DMEM with L-glutamine supplemented with 10% heat-inactivated FBS (Gibco) and Antibiotic-Antimycotic solution (Gibco).
(§3) VWMD mutations were introduced into the genome of the HEK293T ATF4-Fluc stable cell lines by using Gene Art CRISPR nuclease vector with OFP Reporter kit (ThermoFisher; see Table 3 below). Guide RNAs were designed using the CRISPR Design Tool (http://crispr.mit.edu) and ligated into the CRISPR OFP Nuclease Vector. To obtain homology directed repair (HDR) incorporating VWMD point mutations in the genome, 150 bp ssDNA ultramer oligos were synthesized by Integrated DNA Technologies containing specific mutations of interest. In addition to the VWMD mutations, the ssDNA HDR templates contained a silent mutation to the PAM site of the CRISPR gRNA sequence (to avoid further Cas9 cutting) and 75 bp of homology on each side of the mutation.
(§4) HEK293T ATF4-Fluc cells were transfected with 500 ng of the CRISPR OFP Nuclease Vector and 1 uL of 10 μM ssDNA HDR template using lipofectamine 3000 (ThermoFisher) or SF Cell Line 4D-nucleofector X Kit (Lonza) according to the manufacturer's instructions. After 2-3 days of recovery, single cells were sorted for positive OFP expression on a FACS Aria II (BD Biosciences) into wells of a 96 well plate and allowed to recover for 1-2 weeks.
(§5) The resulting clones were surveyed for CRISPR editing and HDR by harvesting the genomic DNA with the PureLink Genomic DNA kit (ThermoFisher), amplifying a […] locus near the editing site, and sequencing the amplicon. […] Typical clones obtained were hemizygous for the VWMD point mutation, with one or two alleles harboring the desired mutation, and the remaining alleles knocked out (edited to produce a premature stop codon). […]

[2] = biological target: T2, eIF2B mutant B5 R195H (HEK293T ATF4-Fluc cells) (Homo sapiens, UniProt P49770+Q13144+Q9UI10, R195H); assay: ATF4-Luc assay, VWMD eIF2B mutant B5 R195H; type: cell-based; conditions: 1 μg/mL tunicamycin, 7 hours
T2 construct: endogenous in cells
T2 sequence (Q13144 whole entry R195H): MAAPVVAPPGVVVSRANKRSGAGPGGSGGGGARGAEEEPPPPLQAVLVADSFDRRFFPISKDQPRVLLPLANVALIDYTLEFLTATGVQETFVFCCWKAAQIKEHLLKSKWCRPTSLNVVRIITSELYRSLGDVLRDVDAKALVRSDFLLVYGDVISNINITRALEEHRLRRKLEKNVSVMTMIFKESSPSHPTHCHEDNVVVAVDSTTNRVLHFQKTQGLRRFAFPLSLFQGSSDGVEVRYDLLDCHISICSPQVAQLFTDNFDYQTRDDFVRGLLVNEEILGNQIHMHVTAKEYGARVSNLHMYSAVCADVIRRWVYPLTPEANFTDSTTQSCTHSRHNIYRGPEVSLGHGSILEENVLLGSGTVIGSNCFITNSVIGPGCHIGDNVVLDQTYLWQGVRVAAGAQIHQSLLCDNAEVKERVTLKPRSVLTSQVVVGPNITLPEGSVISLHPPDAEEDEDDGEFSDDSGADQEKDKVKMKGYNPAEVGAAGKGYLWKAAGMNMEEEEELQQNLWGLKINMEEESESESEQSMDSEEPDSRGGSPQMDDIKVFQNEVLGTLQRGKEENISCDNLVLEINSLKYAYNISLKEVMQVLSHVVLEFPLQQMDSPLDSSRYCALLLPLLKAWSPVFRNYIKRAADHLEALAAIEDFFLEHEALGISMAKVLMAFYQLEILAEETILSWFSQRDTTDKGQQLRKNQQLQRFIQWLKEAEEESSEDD
T2 sequence (Q14232 whole entry partner): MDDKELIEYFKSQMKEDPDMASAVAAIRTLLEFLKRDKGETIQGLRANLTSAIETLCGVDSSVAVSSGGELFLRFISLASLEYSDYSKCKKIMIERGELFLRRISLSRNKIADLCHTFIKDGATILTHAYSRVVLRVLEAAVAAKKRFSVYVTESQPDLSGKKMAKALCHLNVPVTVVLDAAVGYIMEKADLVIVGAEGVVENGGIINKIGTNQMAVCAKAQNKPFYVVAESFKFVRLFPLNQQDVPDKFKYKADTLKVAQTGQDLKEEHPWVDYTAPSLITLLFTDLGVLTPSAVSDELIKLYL
T2 sequence (P49770 whole entry): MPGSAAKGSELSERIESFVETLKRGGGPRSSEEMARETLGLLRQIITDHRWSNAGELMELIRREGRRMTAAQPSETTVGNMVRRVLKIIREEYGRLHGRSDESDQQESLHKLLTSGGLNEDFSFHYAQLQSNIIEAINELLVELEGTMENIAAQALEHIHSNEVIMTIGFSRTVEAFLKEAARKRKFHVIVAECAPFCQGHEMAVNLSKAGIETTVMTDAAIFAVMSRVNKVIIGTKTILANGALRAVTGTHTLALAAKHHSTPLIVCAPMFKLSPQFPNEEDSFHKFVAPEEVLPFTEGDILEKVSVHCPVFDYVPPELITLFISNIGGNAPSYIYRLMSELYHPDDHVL
T2 sequence (Q9NR50 whole entry partner): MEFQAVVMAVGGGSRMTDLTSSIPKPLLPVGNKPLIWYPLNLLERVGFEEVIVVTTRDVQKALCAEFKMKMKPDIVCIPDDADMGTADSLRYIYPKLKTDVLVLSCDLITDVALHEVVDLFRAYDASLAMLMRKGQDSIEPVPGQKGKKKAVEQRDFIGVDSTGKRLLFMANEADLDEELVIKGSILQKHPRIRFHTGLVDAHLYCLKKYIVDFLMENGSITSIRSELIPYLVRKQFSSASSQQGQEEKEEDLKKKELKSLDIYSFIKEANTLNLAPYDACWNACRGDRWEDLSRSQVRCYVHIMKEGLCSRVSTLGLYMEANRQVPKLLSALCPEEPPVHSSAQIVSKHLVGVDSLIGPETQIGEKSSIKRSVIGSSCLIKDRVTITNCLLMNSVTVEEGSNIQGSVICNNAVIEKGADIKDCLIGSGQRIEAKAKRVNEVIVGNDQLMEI
T2 sequence (Q9UI10 whole entry): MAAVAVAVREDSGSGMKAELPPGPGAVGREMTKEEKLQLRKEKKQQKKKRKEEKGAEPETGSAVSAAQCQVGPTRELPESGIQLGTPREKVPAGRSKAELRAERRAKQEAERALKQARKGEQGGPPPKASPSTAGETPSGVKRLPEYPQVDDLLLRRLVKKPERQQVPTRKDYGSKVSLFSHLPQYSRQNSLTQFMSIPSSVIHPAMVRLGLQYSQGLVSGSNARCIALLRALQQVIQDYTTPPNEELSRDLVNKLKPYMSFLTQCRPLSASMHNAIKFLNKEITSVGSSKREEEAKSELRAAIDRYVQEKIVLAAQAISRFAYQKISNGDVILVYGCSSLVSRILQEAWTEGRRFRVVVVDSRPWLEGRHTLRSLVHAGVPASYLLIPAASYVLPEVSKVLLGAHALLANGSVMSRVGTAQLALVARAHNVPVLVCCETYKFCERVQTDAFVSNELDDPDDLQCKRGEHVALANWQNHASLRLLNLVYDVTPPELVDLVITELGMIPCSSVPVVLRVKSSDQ
Procedure: as §1, §2, §3, §4, §5

[3] = biological target: T3, eIF2B mutant B1 V183F (HEK293T ATF4-Fluc cells) (Homo sapiens, UniProt P49770+Q14232+Q9UI10, V183F); assay: ATF4-Luc assay, VWMD eIF2B mutant B1 V183F; type: cell-based; conditions: 1 μg/mL tunicamycin, 7 hours
T3 construct: endogenous in cells
T3 sequence (Q14232 whole entry V183F): as the sequence (Q14232 whole entry partner) above, with V183F counted along it
T3 sequence (P49770 whole entry): as the sequence (P49770 whole entry) above
T3 sequence (Q9NR50 whole entry partner): as the sequence (Q9NR50 whole entry partner) above
T3 sequence (Q9UI10 whole entry): as the sequence (Q9UI10 whole entry) above
T3 sequence (Q13144 whole entry partner): as the sequence (Q13144 whole entry R195H) above, with H195R counted along it
Procedure: as §1, §2, §3, §4, §5

[4] = biological target: T4, eIF2B mutant B3 I346T (HEK293T ATF4-Fluc cells) (Homo sapiens, UniProt P49770+Q9NR50+Q9UI10, I346T); assay: ATF4-Luc assay, VWMD eIF2B mutant B3 I346T; type: cell-based; conditions: 1 μg/mL tunicamycin, 7 hours
T4 construct: endogenous in cells
T4 sequence (Q9NR50 whole entry I346T): as the sequence (Q9NR50 whole entry partner) above, with I346T counted along it
T4 sequence (Q14232 whole entry partner): as the sequence (Q14232 whole entry partner) above
T4 sequence (P49770 whole entry): as the sequence (P49770 whole entry) above
T4 sequence (Q9UI10 whole entry): as the sequence (Q9UI10 whole entry) above
T4 sequence (Q13144 whole entry partner): as the sequence (Q13144 whole entry R195H) above, with H195R counted along it
Procedure: as §1, §2, §3, §4, §5

[5] = system: ATF4 luciferase reporter in HEK293T cells; assay: ATF4-Luc assay (ATF4 luciferase reporter, tunicamycin-treated HEK293T cells); type: cell-based, human; conditions: Homo sapiens, HEK-293T; HEK293T cells carrying the ATF4 luciferase reporter, 1 μg/mL tunicamycin, 7 hours
[6] = biological target: T5, eIF2B mutant B4 R357W (HEK293T ATF4-Fluc cells) (Homo sapiens, UniProt P49770+Q9UI10, R357W); assay: ATF4-Luc assay, VWMD eIF2B mutant B4 R357W; type: cell-based; conditions: 1 μg/mL tunicamycin, 7 hours
T5 construct: endogenous in cells
T5 sequence (Q9UI10 whole entry R357W): as the sequence (Q9UI10 whole entry) above, with R357W counted along it
T5 sequence (Q14232 whole entry partner): as the sequence (Q14232 whole entry partner) above
T5 sequence (P49770 whole entry): as the sequence (P49770 whole entry) above
T5 sequence (Q9NR50 whole entry partner): as the sequence (Q9NR50 whole entry partner) above
T5 sequence (Q13144 whole entry partner): as the sequence (Q13144 whole entry R195H) above, with H195R counted along it
Procedure: as §1, §2, §3, §4, §5

[7] = biological target: T6, eIF2B mutant B3 H341Q (HEK293T ATF4-Fluc cells) (Homo sapiens, UniProt P49770+Q9NR50+Q9UI10, H341Q); assay: ATF4-Luc assay, VWMD eIF2B mutant B3 H341Q; type: cell-based; conditions: 1 μg/mL tunicamycin, 7 hours
T6 construct: endogenous in cells
T6 sequence (Q9NR50 whole entry H341Q): as the sequence (Q9NR50 whole entry partner) above, with H341Q counted along it
T6 sequence (Q14232 whole entry partner): as the sequence (Q14232 whole entry partner) above
T6 sequence (P49770 whole entry): as the sequence (P49770 whole entry) above
T6 sequence (Q9UI10 whole entry): as the sequence (Q9UI10 whole entry) above
T6 sequence (Q13144 whole entry partner): as the sequence (Q13144 whole entry R195H) above, with H195R counted along it
Procedure: as §1, §2, §3, §4, §5

[8] = biological target: T7, eIF2B mutant B5 R113H (HEK293T ATF4-Fluc cells) (Homo sapiens, UniProt P49770+Q13144+Q9UI10, R113H); assay: ATF4-Luc assay, VWMD eIF2B mutant B5 R113H; type: cell-based; conditions: 1 μg/mL tunicamycin, 7 hours
T7 construct: endogenous in cells
T7 sequence (Q13144 whole entry R113H): as the sequence (Q13144 whole entry R195H) above, with R113H, H195R counted along it
T7 sequence (Q14232 whole entry partner): as the sequence (Q14232 whole entry partner) above
T7 sequence (P49770 whole entry): as the sequence (P49770 whole entry) above
T7 sequence (Q9NR50 whole entry partner): as the sequence (Q9NR50 whole entry partner) above
T7 sequence (Q9UI10 whole entry): as the sequence (Q9UI10 whole entry) above
Procedure: as §1, §2, §3, §4, §5

T1 sequence (Q9UI10 whole entry R483W): as the sequence (Q9UI10 whole entry) above, with R483W counted along it
T1 sequence (Q14232 whole entry partner): as the sequence (Q14232 whole entry partner) above
T1 sequence (P49770 whole entry): as the sequence (P49770 whole entry) above
T1 sequence (Q9NR50 whole entry partner): as the sequence (Q9NR50 whole entry partner) above
T1 sequence (Q13144 whole entry partner): as the sequence (Q13144 whole entry R195H) above, with H195R counted along it

SMILES	EC50 [1]	EC50 [2]	EC50 [3]	EC50 [4]	EC50 [5]	EC50 [6]	EC50 [7]	EC50 [8]
O=C(COc1ccc(Cl)c(F)c1)NC12CCC(NC(=O)COc3ccc(Cl)c(F)c3)(CC1)[C@@H](O)C2 (single isomer, unassigned) [Compound 297]	< 10 nM	< 10 nM	< 10 nM	< 10 nM	< 10 nM	< 10 nM	< 10 nM	< 10 nM
O=C(COc1ccc(C(F)(F)F)nc1)NC12CC(NC(=O)COc3ccc(Cl)c(F)c3)(C1)C2 [Compound 175, 2-(4-chloro-3-fluorophenoxy)-N-[3-(2-{[6-(trifluoromethyl)pyridin-3-yl]oxy}acetamido)bicyclo[1.1.1]pentan-1-yl]acetamide]	< 10 nM	10 to 50 nM	50 to 250 nM	< 10 nM	< 10 nM	10 to 50 nM	10 to 50 nM	10 to 50 nM
Cc1noc(COCC(=O)NC23CC(NC(=O)COc4ccc(Cl)c(F)c4)(C2)C3)n1 [Compound 217, 2-(4-chloro-3-fluorophenoxy)-N-(3-{2-[(3-methyl-1,2,4-oxadiazol-5-yl)methoxy]acetamido}bicyclo[1.1.1]pentan-1-yl)acetamide]	> 2000 nM	500 to 2000 nM	> 2000 nM	500 to 2000 nM	500 to 2000 nM	500 to 2000 nM	500 to 2000 nM	> 2000 nM
O=C(COc1ccc(Cl)cc1)NC12CC(NC(=O)COc3ccc(Cl)cc3)(C1)C2 [Compound 112, N,N′-(bicyclo[1.1.1]pentane-1,3-diyl)bis[2-(4-chlorophenoxy)acetamide]]	< 10 nM	< 10 nM	< 10 nM	< 10 nM	< 10 nM	< 10 nM	< 10 nM	< 10 nM

Reference: US20240166652A1, “MODULATORS OF THE INTEGRATED STRESS PATHWAY” (Calico Life Sciences LLC, priority 2017, published 2024)
